Results from patent publication US12514856B2, “Pediatric trazodone compositions and method of treatment thereof” (ANGELINI S.p.A., priority 2019, dated 2026).
Values joined by “and” are separate entries in the source; they are usually repeats but may differ in a detail not shown here. Equal values may be shown once. Read-outs that look alike come from different tables or passages of the source.

What was measured:
[1] = Toxicological Risk Assessment of excipients in oral drops (MDI vs ADI); design: species or system children; conditions: Maximum Daily Therapeutic Dose up to 0.5 mg/kg/day; for MDI (for 2 years aged children): Trazodone HCl 1.5% oral solution; for MDI (for 6 years aged children): Trazodone HCl 3.0% oral solution
Procedure: The Toxicological Risk Assessment of the formulations was performed to evaluate the safety of the excipients employed in the two oral drops formulations for pediatric use.

[2] = cited from earlier work
[3] = Physical chemistry of trazodone; assay type: physicochemical
Text: (§1) Derivation of key parameters is described below.

[4] = Blood binding (E:P ratio, equilibrium dialysis); assay type: in vitro ADME
Text: as §1

[5] = Caco-2 permeability; assay type: in vitro ADME; conditions: human
Text: as §1

[6] = molecular target: CYP3A4 (Homo sapiens, UniProt P08684); assay: CYP3A4-mediated metabolism (retrograde calculation)
Sequence of CYP3A4 (P08684 whole entry): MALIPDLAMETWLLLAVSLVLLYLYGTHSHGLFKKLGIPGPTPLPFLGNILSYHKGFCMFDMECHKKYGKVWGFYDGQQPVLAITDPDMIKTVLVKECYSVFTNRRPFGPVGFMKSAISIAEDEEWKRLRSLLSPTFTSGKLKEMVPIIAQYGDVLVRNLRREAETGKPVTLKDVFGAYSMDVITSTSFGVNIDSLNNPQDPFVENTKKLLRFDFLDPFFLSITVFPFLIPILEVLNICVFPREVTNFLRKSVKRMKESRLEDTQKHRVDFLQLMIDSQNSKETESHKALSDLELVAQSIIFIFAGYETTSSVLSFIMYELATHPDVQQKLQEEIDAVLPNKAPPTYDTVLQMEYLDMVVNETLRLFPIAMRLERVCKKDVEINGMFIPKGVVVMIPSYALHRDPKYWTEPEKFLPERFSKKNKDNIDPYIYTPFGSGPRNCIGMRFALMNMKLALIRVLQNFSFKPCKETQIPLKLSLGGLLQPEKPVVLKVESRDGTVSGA

[7] = system: human liver microsome; assay: Additional HLM CLint (retrograde calculation); conditions: 30% of hepatic metabolism assigned to undefined pathways
Text: as §1

[8] = system: children with insomnia affected by NDDs; assay: Phase II trial in children with insomnia affected by NDDs; assay type: in vivo, human
Procedure: Three different doses, 0.25/0.4 and 0.5 mg/kg/day were administered at bedtime in fruit juice (in a volume of about 200 mL) in the pediatric population of from 2 to 17 years old.
A multi-centre, randomised, parallel-group, single-blind phase II trial was designed, based on the prediction described in the previous Example 3, to evaluate the pharmacokinetics and PKPD relationship of trazodone after single and repeated oral doses in children from 2 to years of age, suffering from insomnia, affected by neurodevelopmental disorders (NDDs: autism spectrum disorder, intellectual disability or attention deficit hyperactivity disorder). The single-blind phase II trial is still ongoing.
The primary objective of this study is to assess the pharmacokinetics (PK) of trazodone after single and repeated doses in patients aged from 2 to years.
Among the secondary objectives of this study, there are the establishment of the pharmacokinetic-pharmacodynamic (PKPD) relationship of trazodone, as assessed by actigraphy measures, and the definition of the dose rationale in children and adolescents aged from […] taking into account the therapeutic exposure range in adults.
The parent's diary will also be used in the evaluation of the results. This phase II clinical trial is designed to assess the PK and PD of 3 dose levels of trazodone in children with insomnia affected by NDDs. A minimum of 36 patients will be randomly assigned (at least 30 evaluable patients, 10 for each treatment arm; at least 10 evaluable patients aged 2 to years, 10 evaluable patients aged 6 to […], 10 evaluable patients aged 12 to years; at least 3 patients for each age and treatment arm).
Patients are initially assigned to one of the 3 treatment arms. Patients in treatment arms 2 and 3 will receive 0.25 mg/kg/day for 3 days followed by a higher maintenance dose for 7 days: • Treatment arm 1: 0.25 mg/kg/day (on days 1 through 10) • Treatment arm 2: 0.4 mg/kg/day (0.25 mg/kg/day on days 1 through 3 and 0.4 mg/kg/day on days 4 through 10) • Treatment arm 3: 0.5 mg/kg/day (0.25 mg/kg/day on days 1 through 3 and 0.5 mg/kg/day on days 4 through 10).
Patients qualifying for the participation in the study at visit 1 (day 1, randomisation—first dose) have been admitted to the clinic at 2 out of 3 visits, according to a patient-specific PK sampling scheme. Due to the requirement of sparse sampling, each patient will contribute a total of 5 PK samples.
Sleep latency and total sleeping time have been recorded by actigraphy starting from 3 consecutive days prior to visit 1 up to the end of the treatment.
An interim analysis has been performed after completion of 18 patients to assess whether data collected allows the determination of the relevant PK parameters with the appropriate precision. The 18 patients are so distributed according treatment arms: 3 patients in treatment arm 1, 5 patients in treatment arm 2, 10 patients in treatment arm 3.

[9] = PBPK modelling (Simcyp Population-Based Simulator); conditions: ER; fitting of concentration-time data following a single oral dose of 300 mg ER trazodone
[10] = alternative value printed beside the first (EMA 2014; FDA 1998 USA; EFSA 2014; JECFA 1973)
[11] = first-listed value/reference (JECFA, SCF)

Structure (SMILES): OC[C@H]1O[C@H](O[C@]2(CCl)O[C@H](CCl)[C@@H](O)[C@@H]2O)[C@H](O)[C@@H](O)[C@H]1Cl [Sucralose]
- MDI (for 2 years aged children) [1]: 0.05 mg/kg/day
- MDI (for 6 years aged children) [1]: 0.03 mg/kg/day
- ADI [2, 10]: 5 mg/kg/day and 5 (USA) mg/kg/day
- ADI [2, 11]: 15 (UE) mg/kg/day and 15 mg/kg/day and 15 (UE)^ mg/kg/day

Structure (SMILES): O=c1n(CCCN2CCN(c3cccc(Cl)c3)CC2)nc2ccccn12 [trazodone]
- solubility as a function of pH [3]: fully soluble only at acidic pH and precipitates at pH values close to neutrality
- pKa ([3]; Monoprotic Base): 6.61
- B/P ([4]; blood to plasma, calculated from measured E:P ratio): 0.68
- E:P ratio ([4]; erythrocyte to plasma ratio): of 0.2.
- fup ([4]; fraction unbound in plasma, equilibrium dialysis): 0.0354
- Papp ([5]; Caco-2 cells, read-out: mean Papp): 24.2 ×10⁻⁶ cm/s
- CLint, CYP3A4 ([6]; Retrograde calculation, 70% of hepatic metabolism assigned to CYP3A4): 0.438 µL/min/pmol
- fmCYP3A4 ([6]; estimation of CYP3A4-mediated metabolism): 70%
- Additional HLM CLint [7]: 25.7 µL/min/mg
- cumulative total sleep time ([8]; actigraphy, patients showing higher exposure to trazodone): slightly longer sleep time
- correlation between secondary PK parameters and relative change from baseline in total sleep time ([8]; interim analysis): correlations were observed
- Inter-individual variability in clearance estimates ([8]; pediatric patients vs adult subjects, interim analysis): considerably higher than what has been observed previously in adult subject
- dose proportionality of pharmacokinetics ([8]; pediatric patients, 0.25/0.4/0.5 mg/kg/day, interim analysis of 18 patients): dose-proportional
- sleep time ([8]; pediatric population with NDD, 0.4 and 0.5 mg/kg/day by drops, preliminary): increase the sleep time
- total sleep time ([8]; visit 3, small proportion of patients assigned to 0.4 and 0.5 mg/kg dose, actigraphy): > 9 h
- ka [9]: ER: 0.07 hr^−1

Structure (SMILES): C/C=C/C=C/C(=O)[O-].[K+] [K-Sorbate]
- ADI [2, 10]: 11 mg/kg/day
- ADI [2, 11]: 3 mg/kg/day

Structure (SMILES): COCCc1ccc(OCC(O)CNC(C)C)cc1 (stereo not shown) [metoprolol]
- Papp ([5]; Caco-2): 28.1 ×10⁻⁶ cm/s

Structure (SMILES): O=C([O-])CN(CCN(CC(=O)[O-])CC(=O)O)CC(=O)O.[Na+].[Na+] [Disodium edetate]
- MDI (for 2 years aged children) [1]: 0.02 mg/kg/day
- MDI (for 6 years aged children) [1]: 0.01 mg/kg/day
- ADI [2, 10]: 2.5 mg/kg/day
- ADI [2, 11]: 1.9 mg/kg/day and 1.9 (ex- mg/kg/day

Structure (SMILES): O=C(O)CC(O)(CC(=O)O)C(=O)O [Citric acid anhydrous]
- MDI (for 2 years aged children) [1]: 0.17 mg/kg/day
- MDI (for 6 years aged children) [1]: 0.08 mg/kg/day

Structure (SMILES): COC(=O)c1ccc(O)cc1 [methyl parahydroxybenzoate]
- ADI [2, 11]: 10 mg/kg/day

Structure (SMILES): O=C([O-])c1ccccc1.[Na+] [Sodium Benzoate]
- ADI [2, 11]: 5 mg/kg/day

Structure (SMILES): CC(O)CO (stereo not shown) [Propylene glycol]
- MDI (for 2 years aged children) [1]: 10.00 mg/kg/day
- MDI (for 6 years aged children) [1]: 5.00 mg/kg/day
- ADI [2, 10]: 50 mg/kg/day
- ADI [2, 11]: 25 mg/kg/day

Structure (SMILES): [Na+].[OH-] [Sodium hydroxide]
- MDI (for 2 years aged children) [1]: 0.04 mg/kg/day
- MDI (for 6 years aged children) [1]: 0.02 mg/kg/day
- ADI [2, 11]: Not limited

Structure (SMILES): OC[C@H]1O[C@@](CO)(O[C@H]2O[C@H](CO)[C@@H](O)[C@H](O)[C@H]2O)[C@@H](O)[C@@H]1O [Sucrose]
- ADI [2, 11]: GRAS

Structure (SMILES): CCCOC(=O)c1cc(O)c(O)c(O)c1 [Propyl gallate]
- MDI (for 2 years aged children) [1]: 0.03 mg/kg/day
- MDI (for 6 years aged children) [1]: 0.02 mg/kg/day
- ADI [2, 10]: 0.5 mg/kg/day
- ADI [2, 11]: 1.4 mg/kg/day
